{"source": "paper PMC12626888", "about": "“Discovery of iridoid cyclase completes the iridoid pathway in asterids” (Nature Plants, 2025)", "assay_type_in_all_cases": "biochemical", "key": {"CiICYC [1]": {"target": "T1, CiICYC (Carapichea ipecacuanha, UniProt Z9ZM09DHC0)", "T1 construct": "full-length CDS in pOPINF, His-tagged, E. coli SoluBL21 (DE3), Ni-NTA", "T1 sequence (Z9ZM09DHC0 1-260)": "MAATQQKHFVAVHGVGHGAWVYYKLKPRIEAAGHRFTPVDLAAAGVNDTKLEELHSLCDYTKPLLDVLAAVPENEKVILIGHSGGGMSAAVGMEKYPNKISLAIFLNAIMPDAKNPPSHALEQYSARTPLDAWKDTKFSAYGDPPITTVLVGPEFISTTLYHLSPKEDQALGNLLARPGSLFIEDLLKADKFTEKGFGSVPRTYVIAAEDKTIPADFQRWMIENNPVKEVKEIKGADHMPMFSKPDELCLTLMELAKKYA", "assay": "spectrophotometric esterase assay, […] nm", "settings": "2 mM substrate; 0.5 uM enzyme; 100 mM HEPES pH 7; 1 mM CaCl2; 25 °C"}, "SiICYC [2]": {"target": "T2, SiICYC (Sesamum indicum, UniProt A0A6I9UJQ5)", "T2 construct": "gene LOC105177689; synthetic full-length gene in pOPINF, His-tagged, E. coli SoluBL21 (DE3), Ni-NTA", "T2 sequence (A0A6I9UJQ5 entry or part of it)": "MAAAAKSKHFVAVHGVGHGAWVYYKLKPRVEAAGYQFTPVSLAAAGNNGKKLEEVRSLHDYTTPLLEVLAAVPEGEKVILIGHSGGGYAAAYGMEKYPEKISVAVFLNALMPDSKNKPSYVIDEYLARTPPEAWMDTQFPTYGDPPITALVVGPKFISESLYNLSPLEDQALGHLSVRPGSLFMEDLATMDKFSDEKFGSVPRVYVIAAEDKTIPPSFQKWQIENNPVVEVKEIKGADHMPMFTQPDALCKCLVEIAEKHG", "assay": "spectrophotometric esterase assay, […] nm", "settings": "2 mM substrate; 0.5 uM enzyme; 100 mM HEPES pH 7; 1 mM CaCl2; 25 °C"}, "VcICYC [3]": {"target": "T3, VcICYC (Vaccinium corymbosum, UniProt Z9DZC4CR80)", "T3 construct": "synthetic full-length gene in pOPINF, His-tagged, E. coli SoluBL21 (DE3), Ni-NTA", "T3 sequence (Z9DZC4CR80 1-256)": "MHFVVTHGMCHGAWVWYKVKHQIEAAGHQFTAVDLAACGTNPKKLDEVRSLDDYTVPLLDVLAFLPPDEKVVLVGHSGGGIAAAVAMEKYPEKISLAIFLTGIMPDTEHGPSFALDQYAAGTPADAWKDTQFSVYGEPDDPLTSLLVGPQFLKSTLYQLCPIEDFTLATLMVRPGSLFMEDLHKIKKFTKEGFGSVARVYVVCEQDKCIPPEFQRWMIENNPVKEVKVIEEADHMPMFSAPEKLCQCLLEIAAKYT", "assay": "spectrophotometric esterase assay, […] nm", "settings": "2 mM substrate; 0.5 uM enzyme; 100 mM HEPES pH 7; 1 mM CaCl2; 25 °C"}, "AsICYC [4]": {"target": "T4, AsICYC (Alangium salviifolium, UniProt Z9MAI7V5A1)", "T4 construct": "full-length CDS in pOPINF, His-tagged, E. coli SoluBL21 (DE3), Ni-NTA", "T4 sequence (Z9MAI7V5A1 1-262)": "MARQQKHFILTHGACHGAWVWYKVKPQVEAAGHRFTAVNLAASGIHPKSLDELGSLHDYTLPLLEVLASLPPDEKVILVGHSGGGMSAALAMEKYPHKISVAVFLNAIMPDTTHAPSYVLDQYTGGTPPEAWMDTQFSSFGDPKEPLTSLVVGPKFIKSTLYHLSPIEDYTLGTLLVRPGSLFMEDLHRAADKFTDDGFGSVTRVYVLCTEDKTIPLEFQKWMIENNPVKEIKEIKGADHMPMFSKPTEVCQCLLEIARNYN", "assay": "spectrophotometric esterase assay, […] nm", "settings": "2 mM substrate; 0.5 uM enzyme; 100 mM HEPES pH 7; 1 mM CaCl2; 25 °C"}, "CrICYC [5]": {"target": "T5, CrICYC (Catharanthus roseus, UniProt Z9BZX6L7S3)", "T5 construct": "full-length CDS in pOPINF, His-tagged, E. coli SoluBL21 (DE3), Ni-NTA", "T5 sequence (Z9BZX6L7S3 1-258)": "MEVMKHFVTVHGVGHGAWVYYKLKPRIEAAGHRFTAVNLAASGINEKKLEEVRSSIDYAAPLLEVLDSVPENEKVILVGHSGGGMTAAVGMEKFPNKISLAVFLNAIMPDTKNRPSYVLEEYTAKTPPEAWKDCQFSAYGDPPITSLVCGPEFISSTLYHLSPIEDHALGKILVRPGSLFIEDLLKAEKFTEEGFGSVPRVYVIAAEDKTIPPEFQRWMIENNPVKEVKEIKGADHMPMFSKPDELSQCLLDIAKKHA", "assay": "spectrophotometric esterase assay, […] nm", "settings": "2 mM substrate; 0.5 uM enzyme; 100 mM HEPES pH 7; 1 mM CaCl2; 25 °C"}, "AmICYC [6]": {"target": "T6, AmICYC (Antirrhinum majus, UniProt Z9RFY5ZUY7)", "T6 construct": "synthetic full-length gene in pOPINF, His-tagged, E. coli SoluBL21 (DE3), Ni-NTA", "T6 sequence (Z9RFY5ZUY7 1-261)": "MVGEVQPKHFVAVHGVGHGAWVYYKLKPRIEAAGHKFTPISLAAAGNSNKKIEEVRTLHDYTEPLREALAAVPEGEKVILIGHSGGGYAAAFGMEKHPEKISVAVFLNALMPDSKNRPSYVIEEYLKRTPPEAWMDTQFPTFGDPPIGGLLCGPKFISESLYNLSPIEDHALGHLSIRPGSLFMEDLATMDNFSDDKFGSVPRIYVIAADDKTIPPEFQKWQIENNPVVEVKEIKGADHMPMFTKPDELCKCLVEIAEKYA", "assay": "spectrophotometric esterase assay, […] nm", "settings": "2 mM substrate; 0.5 uM enzyme; 100 mM HEPES pH 7; 1 mM CaCl2; 25 °C"}, "LjICYC [7]": {"target": "T7, LjICYC (Lonicera japonica, UniProt Z9XP04JJ76)", "T7 construct": "synthetic full-length gene in pOPINF, His-tagged, E. coli SoluBL21 (DE3), Ni-NTA", "T7 sequence (Z9XP04JJ76 1-260)": "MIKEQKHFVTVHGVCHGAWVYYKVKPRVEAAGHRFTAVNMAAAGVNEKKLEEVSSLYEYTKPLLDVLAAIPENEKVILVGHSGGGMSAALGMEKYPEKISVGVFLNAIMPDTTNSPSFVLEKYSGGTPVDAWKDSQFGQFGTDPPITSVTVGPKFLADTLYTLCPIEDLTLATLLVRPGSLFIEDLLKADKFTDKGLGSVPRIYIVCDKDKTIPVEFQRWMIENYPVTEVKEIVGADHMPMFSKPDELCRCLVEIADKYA", "assay": "spectrophotometric esterase assay, […] nm", "settings": "2 mM substrate; 0.5 uM enzyme; 100 mM HEPES pH 7; 1 mM CaCl2; 25 °C"}, "CrICYC [8]": {"target": "T5, CrICYC", "assay": "GC-MS of 7S-cis-trans nepetalactol formed in coupled assay with CrISY", "settings": "enol generated in situ from 0.5 mM 8-oxogeranial by CrISY with 1 mM NADPH; 2 uM ICYC; 100 mM MOPS pH 7.5; 30 °C; 3 h"}, "VcICYC [9]": {"target": "T3, VcICYC", "assay": "GC-MS of 7S-cis-trans nepetalactol formed in coupled assay with CrISY", "settings": "enol generated in situ from 0.5 mM 8-oxogeranial by CrISY with 1 mM NADPH; 2 uM ICYC; 100 mM MOPS pH 7.5; 30 °C; 3 h"}, "AsICYC [10]": {"target": "T4, AsICYC", "assay": "GC-MS of 7S-cis-trans nepetalactol formed in coupled assay with CrISY", "settings": "enol generated in situ from 0.5 mM 8-oxogeranial by CrISY with 1 mM NADPH; 2 uM ICYC; 100 mM MOPS pH 7.5; 30 °C; 3 h"}, "LjICYC [11]": {"target": "T7, LjICYC", "assay": "GC-MS of 7S-cis-trans nepetalactol formed in coupled assay with CrISY", "settings": "enol generated in situ from 0.5 mM 8-oxogeranial by CrISY with 1 mM NADPH; 2 uM ICYC; 100 mM MOPS pH 7.5; 30 °C; 3 h"}, "CiICYC [12]": {"target": "T1, CiICYC", "assay": "GC-MS of 7S-cis-trans nepetalactol formed in coupled assay with CrISY", "settings": "enol generated in situ from 0.5 mM 8-oxogeranial by CrISY with 1 mM NADPH; 2 uM ICYC; 100 mM MOPS pH 7.5; 30 °C; 3 h"}, "SiICYC [13]": {"target": "T2, SiICYC", "assay": "GC-MS of 7R-cis-cis nepetalactol formed in coupled assay with AmISY", "settings": "enol generated in situ from 0.5 mM 8-oxogeranial by AmISY with 1 mM NADPH; 2 uM ICYC; 100 mM MOPS pH 7.5; 30 °C; 3 h"}, "AmICYC [14]": {"target": "T6, AmICYC", "assay": "GC-MS of 7R-cis-cis nepetalactol formed in coupled assay with AmISY", "settings": "enol generated in situ from 0.5 mM 8-oxogeranial by AmISY with 1 mM NADPH; 2 uM ICYC; 100 mM MOPS pH 7.5; 30 °C; 3 h"}, "CrISY": {"target": "T8, CrISY (Catharanthus roseus, UniProt K7WDL7)", "T8 construct": "recombinant, E. coli, pOPINF His-tagged", "T8 sequence (K7WDL7 whole entry)": "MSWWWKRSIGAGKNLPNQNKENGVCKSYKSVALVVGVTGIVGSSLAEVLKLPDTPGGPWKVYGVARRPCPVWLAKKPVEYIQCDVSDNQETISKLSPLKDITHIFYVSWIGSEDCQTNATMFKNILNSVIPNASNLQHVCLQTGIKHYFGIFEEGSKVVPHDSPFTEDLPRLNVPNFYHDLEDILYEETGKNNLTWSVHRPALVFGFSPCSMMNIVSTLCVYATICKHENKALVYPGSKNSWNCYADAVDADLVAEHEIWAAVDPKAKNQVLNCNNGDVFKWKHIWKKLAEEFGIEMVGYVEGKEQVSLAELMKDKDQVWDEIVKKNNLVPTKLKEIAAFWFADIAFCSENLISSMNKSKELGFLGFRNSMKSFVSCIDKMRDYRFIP", "assay": "GC-MS of products", "settings": "0.5 mM 8-oxogeranial; 1 mM NADPH; 0.25 uM CrISY; 100 mM MOPS pH 7.5; 30 °C; 3 h"}, "AmISY": {"target": "T9, AmISY (Antirrhinum majus, UniProt A0A221J5P3)", "T9 construct": "gene ISY; recombinant, E. coli, pOPINF His-tagged", "T9 sequence (A0A221J5P3 1-387)": "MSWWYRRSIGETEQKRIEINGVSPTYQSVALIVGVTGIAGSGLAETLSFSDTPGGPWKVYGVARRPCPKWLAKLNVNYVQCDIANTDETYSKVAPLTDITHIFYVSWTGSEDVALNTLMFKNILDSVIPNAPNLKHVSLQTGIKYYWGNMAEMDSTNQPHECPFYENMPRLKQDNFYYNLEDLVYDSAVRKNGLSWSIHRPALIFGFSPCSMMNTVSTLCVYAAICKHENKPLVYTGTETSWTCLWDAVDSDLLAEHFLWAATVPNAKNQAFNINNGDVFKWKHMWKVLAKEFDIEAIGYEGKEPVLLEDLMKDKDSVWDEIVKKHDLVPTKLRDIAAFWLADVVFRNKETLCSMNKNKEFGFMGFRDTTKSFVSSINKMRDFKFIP", "assay": "GC-MS of products", "settings": "0.5 mM 8-oxogeranial; 1 mM NADPH; 0.5 uM AmISY; 100 mM MOPS pH 7.5; 30 °C; 3 h"}}, "data": [{"smiles": "CC(=O)Oc1ccc([N+](=O)[O-])cc1", "note": "[4-nitrophenyl acetate]", "values": [{"measurement": "spectrophotometric esterase assay, 405 nm", "setting": "CiICYC [1]", "value": "All ICYC orthologues showed esterase activity when tested with the model substrate 4-nitrophenyl acetate"}, {"measurement": "spectrophotometric esterase assay, 405 nm", "setting": "SiICYC [2]", "value": "All ICYC orthologues showed esterase activity when tested with the model substrate 4-nitrophenyl acetate"}, {"measurement": "spectrophotometric esterase assay, 405 nm", "setting": "VcICYC [3]", "value": "All ICYC orthologues showed esterase activity when tested with the model substrate 4-nitrophenyl acetate"}, {"measurement": "spectrophotometric esterase assay, 405 nm", "setting": "AsICYC [4]", "value": "All ICYC orthologues showed esterase activity when tested with the model substrate 4-nitrophenyl acetate"}, {"measurement": "spectrophotometric esterase assay, 405 nm", "setting": "CrICYC [5]", "value": "All ICYC orthologues showed esterase activity when tested with the model substrate 4-nitrophenyl acetate"}, {"measurement": "spectrophotometric esterase assay, 405 nm", "setting": "AmICYC [6]", "value": "All ICYC orthologues showed esterase activity when tested with the model substrate 4-nitrophenyl acetate"}, {"measurement": "spectrophotometric esterase assay, 405 nm", "setting": "LjICYC [7]", "value": "All ICYC orthologues showed esterase activity when tested with the model substrate 4-nitrophenyl acetate"}]}, {"smiles": "C/C(C=O)=C\\CC[C@H](C)/C=C/O", "note": "[S-8-oxocitronellyl enol]", "values": [{"measurement": "GC-MS of 7S-cis-trans nepetalactol formed in coupled assay with CrISY", "setting": "CrICYC [8]", "value": "any of the ICYC orthologues, 7S-cis-trans (7S, 4aS, 7aS) nepetalactol accumulation was substantially increased"}, {"measurement": "GC-MS of 7S-cis-trans nepetalactol formed in coupled assay with CrISY", "setting": "VcICYC [9]", "value": "any of the ICYC orthologues, 7S-cis-trans (7S, 4aS, 7aS) nepetalactol accumulation was substantially increased"}, {"measurement": "GC-MS of 7S-cis-trans nepetalactol formed in coupled assay with CrISY", "setting": "AsICYC [10]", "value": "any of the ICYC orthologues, 7S-cis-trans (7S, 4aS, 7aS) nepetalactol accumulation was substantially increased"}, {"measurement": "GC-MS of 7S-cis-trans nepetalactol formed in coupled assay with CrISY", "setting": "LjICYC [11]", "value": "any of the ICYC orthologues, 7S-cis-trans (7S, 4aS, 7aS) nepetalactol accumulation was substantially increased"}, {"measurement": "GC-MS of 7S-cis-trans nepetalactol formed in coupled assay with CrISY", "setting": "CiICYC [12]", "value": "any of the ICYC orthologues, 7S-cis-trans (7S, 4aS, 7aS) nepetalactol accumulation was substantially increased"}]}, {"smiles": "C/C(C=O)=C\\CC[C@@H](C)/C=C/O", "note": "[R-8-oxocitronellyl enol]", "values": [{"measurement": "GC-MS of 7R-cis-cis nepetalactol formed in coupled assay with AmISY", "setting": "SiICYC [13]", "value": "When AmISY was assayed with ICYC orthologues, a new peak appeared"}, {"measurement": "GC-MS of 7R-cis-cis nepetalactol formed in coupled assay with AmISY", "setting": "AmICYC [14]", "value": "When AmISY was assayed with ICYC orthologues, a new peak appeared"}]}, {"smiles": "C/C(C=O)=C\\CC/C(C)=C/C=O", "note": "[8-oxogeranial]", "values": [{"measurement": "GC-MS of products", "setting": "CrISY", "value": "CrISY and AmISY reduce 8-oxogeranial to form the unstable intermediate S- or R-8-oxocitronellyl enol"}, {"measurement": "GC-MS of products", "setting": "AmISY", "value": "CrISY and AmISY reduce 8-oxogeranial to form the unstable intermediate S- or R-8-oxocitronellyl enol"}]}]}
